Reference: US20100291089A1, “LIGAND OF REGULATING IMMUNE RESPONSE, AND USE THEREOF IN TREATING AN IMMUNE RESPONSE-RELATED DISEASE” (POSTECH ACADEMY-INDUSTRY FOUNDATION, priority 2005, published 2010)
Where no end group is shown, it is not given here.

What was measured:
Assay type in all cases: cell-based
human neutrophils [1] = assay: Neutrophil chemotaxis assay (multiwell chamber, checkerboard analysis); conditions: 1 μM WRW4, 1 μM PACAP27
Description: Chemotaxis assays were performed using multiwell chambers (Neuroprobe Inc., Gaithersburg, Md.) (Bae, Y. S., H. Bae, Y. Kim, T. G. Lee, P. G. Suh, and S. H. Ryu. 2001. Blood 97:2854-2862). Prepared human neutrophils were suspended in RPMI 1640 medium at a 1×10^6 cells/ml, and 25 μl of this suspension was placed into the upper well of a chamber separated from the lower chamber, which was filled with testing solutions, by a […] filter (not coated with polyvinylpyrrolidone). After incubating for 2 hours at 37° C., non-migrated cells were removed by scraping, and cells that had migrated across the filter were dehydrated, fixed, and stained with hematoxylin (Sigma, St. Louis, Mo.). Stained cells in five randomly chosen high power fields (HPF) (400×) were then counted.
Neutrophil migration was analyzed for 2 hours across a polycarbonate membrane. Various concentrations of PACAP27 (SEQ ID NO:1) as shown in the following Table 1 were placed in the upper and lower compartments of the chambers. Data are presented as means±SE for migrated neutrophils cells per field counted in triplicate of two independent experiments.

human neutrophils [2] = assay: Intracellular cyclic AMP measurement in neutrophils; conditions: 1 μM WRW4, 10 μM PACAP27 for 10 minutes
Description: Neutrophils were stimulated with 1 μM of PACAP27 (SEQ ID NO:1), PACAP38 (SEQ ID NO:2), or VIP (SEQ ID NO:3), and calcium concentrations were measured for 10 min. In order to measure EKR phosphorylation, each peptide hormones was used with 1 μM concentrations for 5 min. […]
Briefly, neutrophils were isolated and resuspended at 5×10^6 cells/ml in Hank's balanced salt solution (HBSS) for 5-10 minutes in a shaking incubator. The HBSS was then replaced with […] HBSS containing 500 µM isobutylmethylxanthine (IBMX; a cAMP phosphodiesterase inhibitor) for 5 minutes, and then cells were stimulated for 10 minutes. The reaction was terminated by adding 1 ml of ethanol, and cAMP levels were determined by using cAMP measuring kit (Neurunex, Pohang, Korea) according to the manufacturer's instructions.

human neutrophils [3] = assay: Western blot for ERK phosphorylation in human neutrophils; conditions: pretreating with 1 μM WRW4
Description: (§1) Neutrophils were stimulated with 1 μM of PACAP27 (SEQ ID NO:1), PACAP38 (SEQ ID NO:2), or VIP (SEQ ID NO:3), and calcium concentrations were measured for 10 min. In order to measure EKR phosphorylation, each peptide hormones was used with 1 μM concentrations for 5 min. For cAMP measurement, each peptide hormones was used with 1 μM concentrations for 10 min.
ERK phosphorylation levels were measured by Western blotting, as described in above Bae, Y. S. et al. Cells (2×10^6/assay) were stimulated with the indicated concentration of agonist for 5 minutes, then washed with serum-free RPMI 1640 medium and lysed in lysis buffer {20 mM HEPES (pH 7.2), 10% glycerol, 150 mM NaCl, 1% Triton X-100, 1 mM PMSF, […], 50 mM NaF, and 1 mM Na3VO4}. Detergent-insoluble materials were pelleted by centrifugation (12,000×g, 15 minutes, 4° C.), and the soluble supernatant fraction was removed and either stored at −80° C. or used immediately. Laemmli sample buffer was added to these fractions and boiled (5 minutes). Proteins were separated by SDS-PAGE and transferred to nitrocellulose membranes (Schleicher and Schuell, BA85). Blocking was performed using TBS buffer (10 mM Tris/HCl, pH 7.5, 150 mM NaCl, and 0.05% Tween-20) containing 5% nonfat dry milk. Membranes were probed with a phospho-ERK specific primary antibody or ERK2 antibody for 3 hours at room temperature. […]

human monocytes = assay: Intracellular calcium signaling in human monocytes; conditions: 1 μM WRW4
Description: 1.3. Preparation of Neutrophils and Monocytes Peripheral blood was collected from healthy donors (male, 20˜30 years old, venous blood collection). Human neutrophils were isolated by dextran sedimentation followed by hypotonic erythrocyte lysis and lymphocyte separation medium gradient, as described in “Bae, Y. S., H. Bae, Y. Kim, T. G. Lee, P. G. Suh, and S. H. Ryu. 2001. Identification of novel chemoattractant peptides for human leukocytes. Blood 97:2854-2862”. Isolated human neutrophils were used promptly. Peripheral blood mononuclear cells (PBMCs) were separated on a Histopaque-1077 gradient (Bae, Y. S., H. Bae, Y. Kim, T. G. Lee, P. G. Suh, and S. H. Ryu. 2001. Identification of novel chemoattractant peptides for human leukocytes. Blood 97:2854-2862). […]
Intracellular calcium concentrations ([Ca^2+]i) were determined using Grynkiewicz's method with fura-2/AM, as described in “Grynkiewicz, G., M. Poenie, and R. Y. Tsien. […] Fluorescence changes at 340 and 380 nm using a common emission wavelength of 500 nm were measured, and fluorescence ratios were converted to [Ca2+]i, as described in above Grynkiewicz, G. et al.

human neutrophils [4] = assay: Intracellular calcium mobilization (fura-2) in human neutrophils
Description: as §1
Intracellular calcium concentrations ([Ca^2+]i) were determined using Grynkiewicz's method with fura-2/AM, as described in “Grynkiewicz, G., M. Poenie, and R. Y. Tsien. 1985. […] J. Biol. Chem. 260:3440-3450”. Briefly, the cells prepared in Example 1.2 were incubated with 3 µM fura-2/AM at 37° C. for 50 minutes in fresh serum free RPMI 1640 medium with continuous stirring. The incubated cells (2×10^6) were aliquoted for each assay in Ca^2+-free Locke's solution (154 mM NaCl, 5.6 mM KCl, 1.2 mM MgCl2, 5 mM HEPES (pH 7.3), 10 mM glucose, and 0.2 mM EGTA). Fluorescence changes at 340 and 380 nm using a common emission wavelength of 500 nm were measured, and fluorescence ratios were converted to [Ca2+]i, as described in above Grynkiewicz, G. et al.

human neutrophils [5] = assay: FACS analysis of surface CD11b expression on neutrophils; conditions: 1 μM WRW4, 10 μM PACAP27
Description: Purified neutrophils were incubated with indicated concentration of PACAP27 (SEQ ID NO:1) for 1 hour. Cells (2×10^5/assay) were washed with FACS buffer (PBS containing 1% BSA and 0.1% sodium azide), incubated with human AB type serum for 10 minutes on ice, and stained with PE-labeled human CD11b antibody (BD PharMingen, San Diego, Calif.). They were then analyzed using a FACSCalibur system (BD Biosciences, San Jose, Calif.), as described in “Harfi, I., S. D'Hondt, F. Corazza, and E. Sariban. 2004. J. Immunol. 173:4154-4163”.

## WRWWWW [WRW4]
Human neutrophils [1]
  inhibition of PACAP27-induced neutrophil chemotaxis: completely inhibited
Human neutrophils [2]
  inhibition of PACAP27-induced cAMP elevation: failed to inhibit
Human neutrophils [3]
  inhibition of PACAP27-induced ERK-phosphorylation: completely inhibited
Human monocytes
  inhibition of PACAP27-induced calcium signaling in human monocytes: successfully inhibited
Human neutrophils [4]; 1 M WRW4
  effect on PACAP27 priming of fMLP-induced calcium signaling: abolished
Human neutrophils [4]; 1 M WRW4, 10 nM fMLP
  effect on fMLP-induced calcium signaling: not affected
Human neutrophils [4]; human neutrophils
  concentration that completely inhibits PACAP27-induced neutrophil activation: ≥ 100 nM
Human neutrophils [4]; human neutrophils, pretreatment 30 seconds, 1 μM PACAP27
  inhibition of PACAP27-induced [Ca2+]i up-regulation: successfully inhibited
Human neutrophils [5]
  inhibition of PACAP27-induced CD11b up-regulation: inhibited completely
